Common to all, as to test: relative IC50 (inflection point of fitted viability curve, relative to fitted max inhibition); higher = less sensitive
Common to all, as to conditions: 72 h

Experiment [1] relates to DERL-7 (IL-2 2.5 ng/mL). The procedure:
(§1)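 Drug sensitivity and resistance testing: 5 concentrations over a 10,000-fold range, 72 h at 37 °C, viability by CellTiter-Glo normalised to DMSO and benzethonium chloride controls. IC50 is the inflection point of a logistic fit (min fixed at 0, max fitted), so it is relative to the fitted maximal inhibition. Kept only where fitted max inhibition is at least 50%.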

Experiment [2] deals with YT (IL-2 2.5 ng/mL). The procedure: as §1
Experiment [3] deals with normal primary NK cells, pool 1 (3 donors) (IL-2 2.5 ng/mL). Here is the method:
as §1

Experiment [4] relates to NK-92 (IL-2 2.5 ng/mL). The procedure:
as §1

For experiment [5], the system named is normal primary NK cells, pool 1 (3 donors), resting (IL-2 0 ng/mL). The procedure: as §1
The subject of experiment [6] is KHYG-1 (IL-2 2.5 ng/mL). The procedure:
as §1

Experiment [7] relates to KAI3 (IL-2 2.5 ng/mL). Here is the method:
as §1

Experiment [8] deals with NK-YS (IL-2 2.5 ng/mL). The procedure:
as §1

Experiment [9] has as its system SNK-6 (IL-2 2.5 ng/mL). The procedure: as §1
Experiment [10] relates to normal primary NK cells, pool 3 (3 donors) (IL-2 2.5 ng/mL). The procedure: as §1
Experiment [11] concerns normal primary NK cells, pool 2 (3 donors) (IL-2 2.5 ng/mL). The procedure: as §1
Experiment [12] concerns NKL (IL-2 2.5 ng/mL). The procedure: as §1
Experiment [13] concerns IMC-1 (IL-2 20 ng/mL). Here is the method: as §1

Usually relative IC50 stands for the concentration halfway between the upper and lower plateau of the fitted curve.

For the molecule `Nc1ncnc2c1nc(N)n2[C@@H]1O[C@H](CO)[C@@H](O)[C@H]1O` [8-amino-adenosine], the “relative IC50” value was found to be 0.489 µM in experiment [1]; 0.862 µM in [2]; 6.68 µM in [3]; 0.431 µM in experiment [4]; 13.1 µM in experiment [5]; 0.836 µM in [6]. In addition, the “relative IC50” value amounted to 0.32 µM in experiment [7]; 0.757 µM in [8]; 0.0681 µM in experiment [9]; 6.78 µM in experiment [10]; 5.81 µM in experiment [11]; 0.36 µM in [12]. For the same molecule, in experiment [13], the “relative IC50” value amounted to 1.08 µM.

Take `Nc1ncnc2c1nc(Cl)n2[C@@H]1O[C@H](CO)[C@@H](O)[C@H]1O` [8-chloro-adenosine]: the “relative IC50” value in experiment [1] is 0.641 µM; in experiment [2] it was 1.87 µM; in [3], 5.98 µM; in [4], 2.61 µM; in experiment [5] it was 5.34 µM; in experiment [6], 2.82 µM. Moreover, the “relative IC50” value amounted to 0.579 µM in experiment [7]; 1.44 µM in experiment [8]; 0.33 µM in [9]; 7.03 µM in experiment [10]; 6.01 µM in experiment [11]; 4.72 µM in experiment [12]. The “relative IC50” value in experiment [13] is 19.3 µM.

Turning to `COc1cc(O)c2c(c1)/C=C/C[C@H](O)[C@H](O)C(=O)/C=C\C[C@H](C)OC2=O` [(5Z)-7-Oxozeaenol], the “relative IC50” value in [1] is 0.572 µM; in experiment [2], 1.06 µM; in experiment [3], 0.782 µM; in experiment [4], 1.51 µM; in experiment [5], 0.688 µM; in experiment [6] it was 0.48 µM. The “relative IC50” value in experiment [7] is 0.797 µM; in experiment [8] it was 1.14 µM; in [9] it was 1.56 µM; in experiment [10], 2.05 µM; in experiment [11] it was 1.6 µM; in experiment [12] it was 0.156 µM.

On to `CN1CC[C@H](c2c(O)cc(O)c3c(=O)cc(-c4ccccc4Cl)oc23)[C@H](O)C1` [Alvocidib], for which the “relative IC50” value was 0.174 µM in experiment [1]; 0.133 µM in experiment [2]; 0.182 µM in experiment [3]; 0.117 µM in [4]; 0.37 µM in [5]; 0.136 µM in experiment [6]. Besides, the “relative IC50” value came to 0.0553 µM in experiment [7]; 0.142 µM in experiment [8]; 0.00841 µM in [9]; 0.164 µM in experiment [10]; 0.15 µM in experiment [11]; 0.126 µM in experiment [12]. Besides, in experiment [13], the “relative IC50” value came to 0.41 µM.

With `CN(C)c1cc2c(cc1Sc1nc3c(N)nccc3n1CCNCC(C)(C)C)OCO2` [CUDC-305], the “relative IC50” value in [1] was 0.164 µM; in [2], 0.302 µM; in experiment [3] it was 0.232 µM; in [4], 0.204 µM; in experiment [5] it was 0.199 µM; in [6], 0.243 µM. For the same molecule, the “relative IC50” value is 0.114 µM in experiment [7]; 0.158 µM in [8]; 0.328 µM in experiment [9]; 0.308 µM in experiment [10]; 0.208 µM in [11]; 0.293 µM in experiment [12]. For the same molecule, the “relative IC50” value in [13] worked out at 0.301 µM.

As to `C=CC(=O)Nc1cc2c(Nc3ccc(F)c(Cl)c3)ncnc2cc1OCCCN1CCOCC1` [Canertinib], the “relative IC50” value in [1] came to 1.08 µM; in [2] it was 1.97 µM; in experiment [3], 0.402 µM; in [4], 1.18 µM; in experiment [5], 0.333 µM; in experiment [6], 2.67 µM. In addition, the “relative IC50” value is 1.1 µM in experiment [7]; 1.99 µM in experiment [8]; 2.98 µM in [9]; 1.29 µM in experiment [10]; 0.71 µM in experiment [11]; 1.29 µM in experiment [12]. Also, the “relative IC50” value in experiment [13] came out at 3.7 µM.

On to `Cc1c2oc3c(C)ccc(C(=O)N[C@@H]4C(=O)N[C@H](C(C)C)C(=O)N5CCC[C@H]5C(=O)N(C)CC(=O)N(C)[C@@H](C(C)C)C(=O)O[C@@H]4C)c3nc-2c(C(=O)N[C@@H]2C(=O)N[C@H](C(C)C)C(=O)N3CCC[C@H]3C(=O)N(C)CC(=O)N(C)[C@@H](C(C)C)C(=O)O[C@@H]2C)c(N)c1=O` [Dactinomycin], for which the “relative IC50” value in [1] is 0.00143 µM; in experiment [2], 0.00098 µM; in experiment [3], 0.0134 µM; in [4], 0.0247 µM; in experiment [5], 0.00439 µM; in [6] it was 0.00249 µM. Besides, the “relative IC50” value in [7] came out at 0.00477 µM; in experiment [8] it was 0.00055 µM; in experiment [9], 0.00027 µM; in [10], 0.0127 µM; in [11] it was 0.00598 µM; in experiment [12] it was 0.00068 µM. Besides, the “relative IC50” value in [13] turned out to be 0.0122 µM.

The values are drawn from the supplement of paper PMC5908809.
